{"source": "patent US9700633B2", "about": "“Conjugates of water soluble polymer-amino acid oligopeptide-drug, preparation method and use thereof” (JENKEM TECHNOLOGY CO. LTD., TIANJIN BRANCH, priority 2013, dated 2017)", "key": {"[1]": {"test": "In vitro degradation assay in 0.01 M PBS buffer solution", "assay_type": "physicochemical", "experimental": "In order to determine the degradation of the compounds in PBS buffer solution, the compounds DSR1˜6 were dissolved in 0.01 M PBS buffer solution, and were sampled every 30 min."}, "[2]": {"tested_on": "K562 human chronic myelogenous leukemia", "test": "Subcutaneous tumor model of K562 human chronic myelogenous leukemia", "assay_type": "in vivo, NOD/SCID mice", "conditions": "5 mg/kg; for Relative tumor volume (x ± SE) / Tumor volume (x ± SE): intravenous twice a week", "experimental": "K562 cells were subcutaneously inoculated at the back of NOD/SCID mice right side so as to establish a subcutaneous xenograft animal model of human chronic myelogenous leukemia. When the average tumor volume reached 130 mm^3, the experiment mice were divided to different groups, with 8 mice for each group, and the drugs were administrated by intravenous injections twice a week. The effect was evaluated based on relative tumor proliferation ratio (T/C %).\nTumor cells were routinely passaged twice a week. Tumor cells in exponential growth phase were collected, then suspended in a mixture of PBS: matrigel with equal volume ratio and placed on ice for tumor inoculation.\n5×10^6 K562 cells were subcutaneously inoculated at the back of experiment mice right side. The mice were monitored at regular intervals for the tumor growth. When tumor grew to average 130 mm^3, the mice were divided to groups randomly according to tumor volume and mouse body weight, and were administrated.\n(§1) All of the operations relevant to operation, nursing and treatment in this investigation were conducted according to guidelines approved by Association for Assessment and Accreditation of Laboratory Animal Care (AAALAC). After the incoluation, the incidence of disease and death of animals were observed every day. In the process of daily observation, the effects of tumor growth on normal behavior of animals (such as exercise, feeding, drinking, body weight change, eyes, hair) as well as any other abnormality were attentively monitored. Death and clinical symptom were recorded for animals in each group.\nThe calculation formula for tumor volume is as follows: tumor volume (mm^3)=0.5×(long diameter of the tumor×short diameter of the tumor^2). RTV and T/C ratios were calculated according to the tumor volumes of the treatment groups and the control group. RTV refers to relative tumor volume. T/C ratio refers to the percentage value of the average tumor volumes between the treatment groups and the control group at a time point after the treatment, which reflects the anti-tumor effects of different treatment groups.\nAll the experiment results were expressed as the average tumor volume±SE (standard error). For statistical analysis, since the variances of relative tumor volume data were different, one-way analysis of variance (one-way ANOVA) and Dunnett T3 method for multiple comparisons were used to compare significant difference of relative tumor volumes between the groups. p<0.05 indicated the significant difference."}, "[3]": {"tested_on": "PC-3 human prostate cancer", "test": "Subcutaneous tumor model of PC-3 human prostate cancer", "assay_type": "in vivo, Balb/c nude mouse", "conditions": "10 mg/kg", "experimental": "PC-3 cells were subcutaneously inoculated at the right side on the back of Balb/c nude mouse so as to establish a subcutaneous xenograft animal model of human prostate cancer. When the average tumor volume reached 160 mm^3, the experiment mice were divided to different groups, with 8 mice for each group, and the drugs were administrated by intravenous injections twice a week. The therapeutic effect was evaluated based on relative tumor proliferation ratio (T/C %).\nPC-3 cell line was cultured in vitro in Ham's F12K medium with supplement of 10% fetal calf serum and L-glutamine (2 mM) at 37° C. in an atmosphere with 5% CO2 for the tumor cells culture. The tumor cells were routinely passaged twice a week. Tumor cells in exponential growth phase were collected, then were suspended in a mixture of PBS: matrigel with equal volume ratio and were placed on ice for tumor inoculation.\n5×10^6 PC-3 cells were subcutaneously inoculated at the right side on the back of experiment mice. The mice were monitored at regular intervals for the tumor growth. When tumor grew to average 160 mm^3, the mice were divided to groups randomly according to the tumor volume and the mouse body weight, and were administrated.\nas §1\nThe calculation formula for tumor volume is as follows: tumor volume (mm^3)=0.5×(long diameter of the tumor×short diameter of the tumor^2). RTV and T/C ratios were calculated according to the tumor volumes of the treatment groups and the control group. RTV refers to relative tumor volume. T/C ratio refers to the percentage value of the relative tumor volumes of the treatment groups and the control group at a time point after the treatment, which reflects the anti-tumor effects of different treatment groups. At the end of the experiment, the pictures of the tumors were recorded according to the following two methods: 1. after euthanatized by CO2, the animals in each group were placed with tumor-bearing side up, and the pictures were taken and recorded respectively for each group; 2. after the tumor was removed, the tumor weight was weighed first. T/C (percentage value of the tumor weight between the treatment group and the control group) was calculated, and then the tumors from each group were placed in order. The pictures of the tumors were taken and recorded.\nAll the experiment results were expressed as average tumor volume±SE (standard error). For statistical analysis, one-way analysis of variance (one-way ANOVA) and LSD multiple comparisons method were used for the relative tumor volume data, comparing the significant difference of the relative tumor volumes between the groups. p<0.05 indicates the significant difference."}, "[4]": {"tested_on": "human colon cancer HCT-116", "test": "Xenografted tumor of human colon cancer HCT-116 in nude mice", "assay_type": "in vivo, BALB/cA nude mice", "conditions": "45 mg/kg, qw × 3w, iv", "experimental": "The diameter of subcutaneously xenografted tumor of the nude mice was measured by the caliper."}, "human colon cancer HT-29": {"tested_on": "human colon cancer HT-29", "test": "Xenografted tumor of human colon cancer HT-29 in nude mice", "assay_type": "in vivo, BALB/cA nude mice", "conditions": "45 mg/kg, qw × 3w, iv"}, "human lung cancer A549": {"tested_on": "human lung cancer A549", "test": "Xenografted tumor of human lung cancer A549 in nude mice", "assay_type": "in vivo, BALB/cA nude mice", "conditions": "45 mg/kg, qw × 3w, iv"}, "[5]": {"tested_on": "human ovarian cancer SKOV-3", "test": "Xenografted tumor of human ovarian cancer SKOV-3 in nude mice", "assay_type": "in vivo, BALB/cA nude mice", "conditions": "45 mg/kg, qw × 3w, iv"}, "[6]": {"tested_on": "human colon cancer SW-620", "test": "Xenografted tumor of human colon cancer SW-620 in nude mice", "conditions": "45 mg/kg, qw × 3w, iv"}, "[7]": {"conditions": "14th day after the grouping, compared with the solvent control group"}, "[8]": {"conditions": "22nd day after grouping, compared with the solvent control group"}, "[9]": {"conditions": "intravenous twice a week, 22nd day after grouping"}, "[10]": {"conditions": "intravenous twice a week, 25th day after grouping"}}, "note": "Where “and” joins values, the source holds several entries; their conditions need not be identical. Equal entries are not always repeated. Marks after values point to notes of the source that are not given here.", "data": [{"molecule": "conjugate of methoxy PEG glutamic acid dipeptide valine (20K)-dasatinib [DSR-4]", "values": [{"measurement": "degradation", "setting": "[1]; at 240 min", "result": 20, "unit": "%"}, {"measurement": "T/C (relative tumor proliferation ratio)", "setting": "[2]; [7]", "result": 1.6, "unit": "%"}, {"measurement": "T/C (relative tumor proliferation ratio)", "setting": "[2]; 21st day after grouping, compared with the dasatinib group", "result": 45, "unit": "%"}, {"measurement": "Relative tumor volume (x ± SE)", "setting": "[2]; 14th day after the grouping", "result": "29.1 ± 4.8"}, {"measurement": "Tumor volume (x ± SE)", "setting": "[2]; 14th day after the grouping", "result": "39.2 mm^3 and 39.2 ± 6 mm^3"}, {"measurement": "Relative tumor volume (x ± SE)", "setting": "[2]; 21st day after grouping", "result": "130 ± 28"}, {"measurement": "Tumor volume (x ± SE)", "setting": "[2]; 21st day after grouping", "result": "176 mm^3 and 176 ± 59 mm^3"}, {"measurement": "T/C (relative tumor proliferation ratio)", "setting": "[3]; [8]", "result": 47, "unit": "%"}, {"measurement": "T/C (relative tumor proliferation ratio)", "setting": "[3]; 25th day after grouping, compared with the dasatinib group", "result": 61, "unit": "%"}, {"measurement": "Relative tumor volume (x ± SE)", "setting": "[3]; [9]", "result": "745.9 ± 54.4"}, {"measurement": "Tumor volume (x ± SE)", "setting": "[3]; [9]", "result": "1187 mm^3 and 1187 ± 67 mm^3"}, {"measurement": "Relative tumor volume (x ± SE)", "setting": "[3]; [10]", "result": "751.9 ± 78.9"}]}, {"molecule": "conjugate of methoxy PEG dipeptide of glutamic acid alanine (20K)-dasatinib [DSR-3]", "values": [{"measurement": "degradation", "setting": "[1]; at 150 min", "result": 50, "unit": "%"}]}, {"molecule": "conjugate of methoxy PEG dipeptide of glutamic acid and glycine (number-average molecular weight of 20,000)-irinotecan [YNR-1]", "values": [{"measurement": "RTV (mean ± SD)", "setting": "[4]", "result": "1.78 ± 0.23**^,##"}, {"measurement": "T/C", "setting": "[4]", "result": 27.60, "unit": "%"}, {"measurement": "TV (mean ± SD) d0", "setting": "[4]; d0", "result": "132 ± 30", "unit": "mm^3"}, {"measurement": "TV (mean ± SD) d28", "setting": "[4]; d28", "result": "234 ± 54", "unit": "mm^3"}, {"measurement": "RTV (mean ± SD)", "setting": "human colon cancer HT-29", "result": "5.71 ± 1.21"}, {"measurement": "T/C", "setting": "human colon cancer HT-29", "result": 41.08, "unit": "%"}, {"measurement": "TV (mean ± SD) d0", "setting": "human colon cancer HT-29; d0", "result": "115 ± 25", "unit": "mm^3"}, {"measurement": "TV (mean ± SD) d28", "setting": "human colon cancer HT-29; d28", "result": "642 ± 105", "unit": "mm^3"}, {"measurement": "RTV (mean ± SD)", "setting": "human lung cancer A549", "result": "2.97 ± 1.04*^,#"}, {"measurement": "T/C", "setting": "human lung cancer A549", "result": 20.62, "unit": "%"}, {"measurement": "TV (mean ± SD) d0", "setting": "human lung cancer A549; d0", "result": "105 ± 21", "unit": "mm^3"}, {"measurement": "TV (mean ± SD) d28", "setting": "human lung cancer A549; d28", "result": "320 ± 154", "unit": "mm^3"}, {"measurement": "RTV (mean ± SD)", "setting": "[5]", "result": "0.07 ± 0.01*^,#"}, {"measurement": "T/C", "setting": "[5]", "result": 0.53, "unit": "%"}, {"measurement": "TV (mean ± SD) d0", "setting": "[5]; d0", "result": "135 ± 35", "unit": "mm^3"}, {"measurement": "TV (mean ± SD) d28", "setting": "[5]; d28", "result": "1.27 ± 1.98", "unit": "mm^3"}, {"measurement": "number of animals with vanished tumor", "setting": "[5]; d28, 6 mice per group", "result": 4}, {"measurement": "RTV (mean ± SD)", "setting": "[6]", "result": "0.003 ± 0.002**^,#"}, {"measurement": "T/C", "setting": "[6]", "result": 0.02, "unit": "%"}, {"measurement": "TV (mean ± SD) d0", "setting": "[6]; d0", "result": "130 ± 43", "unit": "mm^3"}, {"measurement": "TV (mean ± SD) d28", "setting": "[6]; d28", "result": "0.37 ± 0.29", "unit": "mm^3"}, {"measurement": "number of animals with vanished tumor", "setting": "[6]; d28, 6 mice per group", "result": 2}]}, {"molecule": "Cc1nc(Nc2ncc(C(=O)Nc3c(C)cccc3Cl)s2)cc(N2CCN(CCO)CC2)n1", "note": "[dasatinib]", "values": [{"measurement": "T/C (relative tumor proliferation ratio)", "setting": "[2]; [7]", "result": 12.4, "unit": "%"}, {"measurement": "Relative tumor volume (x ± SE)", "setting": "[2]; 14th day after the grouping", "result": "226.9 ± 30.0"}, {"measurement": "Tumor volume (x ± SE)", "setting": "[2]; 14th day after the grouping", "result": "311 mm^3 and 311 ± 55 mm^3"}, {"measurement": "Relative tumor volume (x ± SE)", "setting": "[2]; 21st day after grouping", "result": "289.1 ± 46.9"}, {"measurement": "Tumor volume (x ± SE)", "setting": "[2]; 21st day after grouping", "result": "391 mm^3 and 391 ± 79 mm^3"}, {"measurement": "T/C (relative tumor proliferation ratio)", "setting": "[3]; [8]", "result": 73, "unit": "%"}, {"measurement": "Relative tumor volume (x ± SE)", "setting": "[3]; [9]", "result": "1148.9 ± 112.7"}, {"measurement": "Relative tumor volume (x ± SE)", "setting": "[3]; [10]", "result": "1235.3 ± 119.6"}]}, {"molecule": "conjugate of methoxy PEG dipeptide acid of glutamic acid (20K)-dasatinib [DSR-1]", "values": [{"measurement": "degradation", "setting": "[1]; at 60 min", "result": 60, "unit": "%"}]}, {"molecule": "conjugate of methoxy PEG dipeptide of glutamic acid and glycine (20K)-dasatinib [DSR-2]", "values": [{"measurement": "degradation", "setting": "[1]; at 90 min", "result": 50, "unit": "%"}]}]}
